The source of these data is patent US20250368666A1, “INDAZOLE COMPOUNDS” (TYRA BIOSCIENCES, INC., priority 2022, published 2025).

One assay deals with T1, FGFR3 (V555M) (Homo sapiens, UniProt P22607, V555M).
T1 construct: made in house; host or cells: E. coli (BL21-derived), T7 phage
Put plainly: Kinase binding assay (kinase-tagged T7 phage, affinity beads, qPCR), Kd. The note with it: V555M mutant; read-out: FGFR3 (V555M) (Kd nM). A digest of the protocol: (§1)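 Readout was qPCR of kinase eluted from ligand-coated affinity beads after competition with test compound. Kinases were expressed as T7 phage fusions in E. coli. Binding constants were derived by non-linear least-squares Hill fitting, Hill slope −1.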

Another assay has as its target T2, FGFR2 (Homo sapiens, UniProt P21802).
T2 construct: made in house; host or cells: E. coli (BL21-derived), T7 phage
Described as above. The settings on record: read-out: FGFR2 (Kd nM). A digest of the protocol:
as §1

The next assay deals with T3, FGFR1 (Homo sapiens, UniProt P11362).
T3 construct: made in house; host or cells: E. coli (BL21-derived), T7 phage
Described as above. The settings on record: read-out: FGFR1 (Kd nM). A digest of the protocol: as §1

The target of another assay is T4, FGFR4 (Homo sapiens, UniProt P22455).
T4 construct: made in house; host or cells: E. coli (BL21-derived), T7 phage
Described as above. The settings on record: read-out: FGFR4 (Kd nM). The method, boiled down:
as §1

The target of a further assay is T5, FGFR3 (Homo sapiens, UniProt P22607).
T5 construct: made in house; host or cells: E. coli (BL21-derived), T7 phage
Described as above. The settings on record: read-out: FGFR3 (Kd nM). The method, boiled down: as §1

Assay [1] concerns HuH7 cell line (FGF19 amplification). In words: Cancer cell line cell viability assay (Cell Titer-Glo), 120 hr. Format: cell-based. The settings on record: Homo sapiens, Huh-7. An excerpt:
Experimental Purpose: To detect the change of intracellular ATP by Cell Titer-Glo® and to evaluate the inhibitory effect of the compounds on cancer cell lines by determining the in vitro IC50 value of the compounds.
Cell Titer-Glo® 2.0 Luminescent cell viability assay reagent was purchased from Promega (Madison, WI). KG-1, KATO-III, and MDA-MB-453 cell lines were purchased from American Type Culture Collection (Manassas, VA). RT112/84 cell line was purchased from Millipore-Sigma (St. Louis, MO). HuH7 cells were purchased from Seikisui Xenotech (Kansas City, KS). RT112/84 and MDA-MB-453 cells were cultured in RPMI1640 media supplemented with 10% fetal bovine serum. KG-1 and KATO-III cell lines were cultured in IMDM media supplemented with 20% FBS. HuH7 cells were cultured in IMDM media supplemented with 10% FBS. Cultures were maintained at 37° C. in a humidified atmosphere of 5% CO2 and 95% air.
Cell Viability Assay Procedure: Cells were plated in 96-well clear bottom/white plates (Corning #3903) at a range of densities depending on the optimal assay window (5,000-20,000 cells/well in […] of media), incubated overnight. The next day, test compound DMSO stock solutions were made at 10 mM and […] final concentration. Compounds were then added to cells in a 9-dose, 4-fold dilution series starting at 3 μM with an HP 300e Digital Dispenser (each dose was applied in triplicate). DMSO was backfilled to each well up to 301 nL total volume of test compound+DMSO, and a total of 301 nL DMSO was added to a control/no test compound well in triplicate. The cells in cell culture plates were incubated with the compounds at 37° C. and 5% CO2 for 72 hours-120 hours depending on the cell line. Then 50 μl of Cell Titer Glo 2.0 reagent was added to each well of the cell culture plates. The contents were covered from light and mixed on an orbital shaker at room temperature for minimum of 10 min. Luminescence was recorded by a Clariostar Plus Microplate Reader (BMG Labtech, Cary, NC). Cells were assessed as a percentage of DMSO only treated control cells. Curves were plotted and IC50 values were calculated using the GraphPad Prism 9 program based on a sigmoidal dose-response equation (log (inhibitor) vs. response—Variable slope, 4-parameter).
Background: ATP-based viability assays read luminescence as a measure of living cells.

The mark [2] stands for this setting: kinase binding assay, 11-point 3-fold dilution series.

SMILES strings stand for the structures. pIC50: −log10 of the molar value. Read-outs that look alike come from different tables or passages of the source.

T5 sequence (P22607 23-806): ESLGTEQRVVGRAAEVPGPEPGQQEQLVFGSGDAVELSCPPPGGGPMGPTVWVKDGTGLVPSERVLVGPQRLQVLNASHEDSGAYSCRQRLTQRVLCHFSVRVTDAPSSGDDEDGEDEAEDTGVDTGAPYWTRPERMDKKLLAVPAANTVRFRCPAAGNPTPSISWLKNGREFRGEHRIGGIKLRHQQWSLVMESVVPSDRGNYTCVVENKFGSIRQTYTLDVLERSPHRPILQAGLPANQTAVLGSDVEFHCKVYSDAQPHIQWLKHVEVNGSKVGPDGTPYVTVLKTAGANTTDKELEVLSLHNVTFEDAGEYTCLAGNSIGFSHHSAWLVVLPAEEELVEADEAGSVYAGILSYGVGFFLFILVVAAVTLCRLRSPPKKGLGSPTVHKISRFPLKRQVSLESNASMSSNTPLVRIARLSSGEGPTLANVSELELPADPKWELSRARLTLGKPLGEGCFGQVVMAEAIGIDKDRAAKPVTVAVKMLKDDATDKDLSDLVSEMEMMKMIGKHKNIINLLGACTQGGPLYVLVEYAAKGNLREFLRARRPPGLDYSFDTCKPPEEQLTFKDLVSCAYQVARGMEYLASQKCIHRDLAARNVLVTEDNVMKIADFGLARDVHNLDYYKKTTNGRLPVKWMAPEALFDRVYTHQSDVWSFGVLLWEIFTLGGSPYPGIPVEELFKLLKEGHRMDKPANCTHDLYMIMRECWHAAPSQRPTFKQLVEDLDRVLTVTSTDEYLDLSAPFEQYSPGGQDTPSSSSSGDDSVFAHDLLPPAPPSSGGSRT
T4 sequence (P22455 22-802): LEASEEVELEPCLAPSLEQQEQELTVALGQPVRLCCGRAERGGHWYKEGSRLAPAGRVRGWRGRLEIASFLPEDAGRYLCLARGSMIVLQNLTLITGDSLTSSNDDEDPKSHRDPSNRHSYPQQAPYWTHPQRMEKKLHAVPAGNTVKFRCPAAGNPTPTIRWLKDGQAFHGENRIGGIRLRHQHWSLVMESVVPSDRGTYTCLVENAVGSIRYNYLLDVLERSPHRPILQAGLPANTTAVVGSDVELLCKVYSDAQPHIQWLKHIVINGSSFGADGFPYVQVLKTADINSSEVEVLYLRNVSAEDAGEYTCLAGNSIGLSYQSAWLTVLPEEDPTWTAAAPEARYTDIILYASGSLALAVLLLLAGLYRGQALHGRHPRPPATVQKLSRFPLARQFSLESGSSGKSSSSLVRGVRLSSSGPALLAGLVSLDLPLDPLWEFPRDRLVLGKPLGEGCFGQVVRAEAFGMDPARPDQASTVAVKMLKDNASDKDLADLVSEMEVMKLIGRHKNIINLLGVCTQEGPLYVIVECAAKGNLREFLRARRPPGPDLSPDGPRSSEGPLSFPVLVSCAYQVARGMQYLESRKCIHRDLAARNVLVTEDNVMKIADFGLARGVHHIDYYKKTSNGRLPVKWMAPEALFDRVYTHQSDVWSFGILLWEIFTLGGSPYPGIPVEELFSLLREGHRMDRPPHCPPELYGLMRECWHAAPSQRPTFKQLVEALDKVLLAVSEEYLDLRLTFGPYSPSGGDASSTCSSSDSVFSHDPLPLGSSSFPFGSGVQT
T1 sequence (P22607 23-806 V555M): as the sequence (P22607 23-806) above, with V533M counted along it
T3 sequence (P11362 22-822): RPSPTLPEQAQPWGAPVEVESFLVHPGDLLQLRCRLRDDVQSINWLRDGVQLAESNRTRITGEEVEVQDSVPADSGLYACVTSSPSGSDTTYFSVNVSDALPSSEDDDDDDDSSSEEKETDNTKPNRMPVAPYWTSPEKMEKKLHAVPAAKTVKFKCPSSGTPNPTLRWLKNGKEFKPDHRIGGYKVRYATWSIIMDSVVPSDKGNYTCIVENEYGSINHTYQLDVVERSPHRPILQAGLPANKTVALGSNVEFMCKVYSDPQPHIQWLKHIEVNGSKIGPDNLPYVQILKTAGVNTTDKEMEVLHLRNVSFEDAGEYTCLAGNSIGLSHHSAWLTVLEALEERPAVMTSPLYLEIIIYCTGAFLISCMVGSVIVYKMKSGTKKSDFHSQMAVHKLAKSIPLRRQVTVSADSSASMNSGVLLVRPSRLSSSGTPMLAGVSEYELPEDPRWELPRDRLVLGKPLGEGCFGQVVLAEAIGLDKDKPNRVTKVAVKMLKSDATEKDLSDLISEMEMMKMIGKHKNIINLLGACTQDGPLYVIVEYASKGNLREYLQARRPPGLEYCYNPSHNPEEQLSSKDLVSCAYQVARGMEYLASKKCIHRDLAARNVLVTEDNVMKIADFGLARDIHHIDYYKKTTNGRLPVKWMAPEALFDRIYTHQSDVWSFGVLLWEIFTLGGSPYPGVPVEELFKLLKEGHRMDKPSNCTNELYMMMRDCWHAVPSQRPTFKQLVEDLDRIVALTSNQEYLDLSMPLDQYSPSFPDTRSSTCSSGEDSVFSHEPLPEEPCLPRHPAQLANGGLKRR
T2 sequence (P21802 22-821): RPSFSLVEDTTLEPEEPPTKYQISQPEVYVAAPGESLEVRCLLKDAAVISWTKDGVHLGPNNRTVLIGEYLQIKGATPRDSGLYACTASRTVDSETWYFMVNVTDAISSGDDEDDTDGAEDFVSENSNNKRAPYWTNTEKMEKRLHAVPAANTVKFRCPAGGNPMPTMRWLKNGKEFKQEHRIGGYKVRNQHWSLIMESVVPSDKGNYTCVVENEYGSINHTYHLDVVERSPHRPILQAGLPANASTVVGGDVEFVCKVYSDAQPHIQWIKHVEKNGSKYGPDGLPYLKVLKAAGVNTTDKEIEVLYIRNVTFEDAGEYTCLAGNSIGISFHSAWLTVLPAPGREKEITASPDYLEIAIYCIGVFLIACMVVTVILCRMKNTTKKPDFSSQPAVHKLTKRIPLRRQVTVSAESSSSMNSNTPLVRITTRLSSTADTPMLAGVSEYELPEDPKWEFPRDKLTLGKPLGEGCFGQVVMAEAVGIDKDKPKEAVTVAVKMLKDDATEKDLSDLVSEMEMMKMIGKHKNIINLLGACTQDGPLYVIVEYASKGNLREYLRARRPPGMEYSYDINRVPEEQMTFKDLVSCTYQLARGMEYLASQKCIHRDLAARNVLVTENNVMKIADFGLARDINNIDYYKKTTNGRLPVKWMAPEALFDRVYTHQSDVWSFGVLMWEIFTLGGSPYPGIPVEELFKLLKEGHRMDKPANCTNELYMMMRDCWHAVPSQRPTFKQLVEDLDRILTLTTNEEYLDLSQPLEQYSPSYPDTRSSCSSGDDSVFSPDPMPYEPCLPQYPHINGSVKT

What is called Kd is the concentration at which binding is half-saturated. As usually defined, the pIC50 is −log10 of the IC50, conventionally taken in molar units. Read a high pIC50 as a low IC50. Turning to `CCN(CC)C1(C)CN(c2ncc(-c3n[nH]c4ccc(O[C@H](C)c5c(Cl)cncc5Cl)cc34)cc2C#N)C1` [Example 31, 5-[5-[(1R)-1-(3,5-dichloro-4-pyridyl)ethoxy]-1H-indazol-3-yl]-2-[3-(diethylamino)-3-methyl-azetidin-1-yl]pyridine-3-carbonitrile], the dissociation constant (Kd) at FGFR3 (V555M) fell in the range of 1 to 50 nM; on FGFR2 it was 50 to 300 nM; at FGFR1, 1 to 50 nM; on FGFR4 it was 1 to 50 nM; on FGFR3, 1 to 50 nM. Also, the pIC50 in assay [1] is 6.70 to 7.30.

Regarding `Cc1ncc(Cl)c([C@@H](C)Oc2ccc3[nH]nc(-c4cnc(N5CC(C)(OC(C)C)C5)c(C#N)c4)c3c2)c1Cl` [Example 13, 5-[5-[(1R)-1-(3,5-dichloro-2-methyl-4-pyridyl)ethoxy]-1H-indazol-3-yl]-2-(3-isopropoxy-3-methyl-azetidin-1-yl)pyridine-3-carbonitrile], the Kd is 50 to 300 nM on FGFR3 (V555M); above 1000 nM at FGFR2; above 1000 nM at FGFR1; 1 to 50 nM at FGFR4; 50 to 300 nM at FGFR3. This compound also had a pIC50 in assay [1] of 6.00 to 6.70.

For the compound `Cc1ncc(Cl)c([C@@H](C)Oc2ccc3[nH]nc(-c4cnc(N5CC(C)(N(C)C)C5)c(C#N)c4)c3c2)c1Cl` [Example 45, 5-[5-[(1R)-1-(3,5-dichloro-2-methyl-4-pyridyl)ethoxy]-1H-indazol-3-yl]-2-[3-(dimethylamino)-3-methyl-azetidin-1-yl]pyridine-3-carbonitrile], the Kd was 1 to 50 nM on FGFR3 (V555M); 50 to 300 nM on FGFR2; 50 to 300 nM at FGFR1; 1 to 50 nM at FGFR4; 1 to 50 nM on FGFR3. The pIC50 in assay [1] is 6.70 to 7.30.

With `CCNC1(C)CN(c2ncc(-c3n[nH]c4ccc(O[C@H](C)c5c(Cl)cncc5Cl)cc34)cc2C#N)C1` [Example 35, (R)-5-(5-(1-(3,5-dichloropyridin-4-yl)ethoxy)-1H-indazol-3-yl)-2-(3-(ethylamino)-3-methylazetidin-1-yl)nicotinonitrile], the Kd on FGFR3 (V555M), at FGFR2, on FGFR1, at FGFR4 and on FGFR3 was 1 to 50 nM throughout. This compound also gave a pIC50 in assay [1] of 7.30 to 10.00.

For `Cc1ncc(Cl)c([C@@H](C)Oc2ccc3[nH]nc(-c4cnc(N5CC(C)(NC6COC6)C5)c(C#N)c4)c3c2)c1Cl` [Example 30, 5-[5-[(1R)-1-(3,5-dichloro-2-methyl-4-pyridyl)ethoxy]-1H-indazol-3-yl]-2-[3-methyl-3-(oxetan-3-ylamino)azetidin-1-yl]pyridine-3-carbonitrile], the Kd at FGFR3 (V555M), on FGFR2, at FGFR1, at FGFR4 and at FGFR3 was 1 to 50 nM throughout. In assay [1], this compound showed a pIC50 of 7.30 to 10.00.

Take `Cc1ncc(Cl)c([C@@H](C)Oc2ccc3[nH]nc(-c4cnc(N5CC(C)(N6CCOCC6)C5)c(C#N)c4)c3c2)c1Cl` [Example 38, 5-[5-[(1R)-1-(3,5-dichloro-2-methyl-4-pyridyl)ethoxy]-1H-indazol-3-yl]-2-(3-methyl-3-morpholino-azetidin-1-yl)pyridine-3-carbonitrile]: the Kd on FGFR3 (V555M) was 1 to 50 nM; on FGFR2, 50 to 300 nM; at FGFR1 it was 300 to 1000 nM; on FGFR4 it was 1 to 50 nM; at FGFR3 it was 1 to 50 nM. In addition, in assay [1], the pIC50 is 6.70 to 7.30.

Regarding `COc1cc2[nH]nc(-c3cnc(N4CC(C)(N(C)C)C4)c(S(C)(=O)=O)c3)c2cc1O[C@H](C)c1c(Cl)cncc1Cl` [Example 1, (R)-1-(5-(5-(1-(3,5-dichloropyridin-4-yl)ethoxy)-6-methoxy-1H-indazol-3-y1)-3-(methylsulfonyl)pyridin-2-yl)-N,N,3-trimethylazetidin-3-amine], the Kd on FGFR3 (V555M), on FGFR2, on FGFR1, on FGFR4 and on FGFR3 was 1 to 50 nM in each case. The same compound had a pIC50 in assay [1] of 7.30 to 10.00.

As to `C[C@@H](Oc1ccc2[nH]nc(-c3cnc(N4CC(C)(N(C)C)C4)c(C#N)c3)c2c1)c1c(Cl)cncc1Cl` [Example 29, (R)-5-(5-(1-(3,5-dichloropyridin-4-yl)ethoxy)-1H-indazol-3-yl)-2-(3-(dimethylamino)-3-methylazetidin-1-yl)nicotinonitrile], the Kd on FGFR3 (V555M) lay within 1 to 50 nM; on FGFR2, 50 to 300 nM; on FGFR1, 50 to 300 nM; on FGFR4, 1 to 50 nM; on FGFR3, 1 to 50 nM. The pIC50 in assay [1] is 6.70 to 7.30.

Regarding `COc1cc2[nH]nc(-c3cnc(N4CC(C)(NCC(C)C)C4)c(C#N)c3)c2cc1O[C@H](C)c1c(Cl)cnc(C)c1Cl` [Example 355, 5-[5-[(1R)-1-(3,5-dichloro-2-methyl-4-pyridyl)ethoxy]-6-methoxy-1H-indazol-3-yl]-2-[3-(isobutylamino)-3-methyl-azetidin-1-yl]pyridine-3-carbonitrile], the Kd on FGFR2 lay in the range of 50 to 300 nM; at FGFR1, 1 to 50 nM; at FGFR4, 1 to 50 nM; at FGFR3, 1 to 50 nM. The same compound gave a pIC50 in assay [1] of 6.70 to 7.30.

In the case of `COc1cc2[nH]nc(-c3cnc(N4CC(N)(Cc5ccn(C)n5)C4)c(C#N)c3)c2cc1O[C@H](C)c1c(Cl)cncc1Cl` [Example 366, (R)-2-(3-amino-3-((1-methyl-1H-pyrazol-3-yl)methyl)azetidin-1-yl)-5-(5-(1-(3,5-dichloropyridin-4-yl)ethoxy)-6-methoxy-1H-indazol-3-yl)nicotinonitrile], the Kd on FGFR2, on FGFR1, at FGFR4 and on FGFR3 was 1 to 50 nM each time. Besides, in assay [1], the pIC50 was 7.30 to 10.00.

Consider `COc1cc2[nH]nc(-c3cnc(N4CC(CC#N)(N(C)C(C)C)C4)c(C#N)c3)c2cc1O[C@H](C)c1c(Cl)cncc1Cl` [Example 358, (R)-2-(3-(cyanomethyl)-3-(isopropyl(methyl)-amino)azetidin-1-yl)-5-(5-(1-(3,5-dichloropyridin-4-yl)ethoxy)-6-methoxy-1H-indazol-3-yl)nicotinonitrile], for which the Kd lay within 50 to 300 nM at FGFR2, 1 to 50 nM at FGFR1, 1 to 50 nM on FGFR4 and 1 to 50 nM at FGFR3. The compound also had a pIC50 in assay [1] of 7.30 to 10.00.

Turning to `COc1cc2[nH]nc(-c3cnc(N4CC[C@@](C)(NCC5CC5)C4)c(C#N)c3)c2cc1O[C@H](C)c1c(Cl)cncc1Cl` [Example 409, 2-((R)-3-((cyclo-propylmethyl)-amino)-3-methylpyrrolidin-1-yl)-5-(5-((R)-1-(3,5-dichloropyridin-4-yl)ethoxy)-6-methoxy-1H-indazol-3-yl)nicotinonitrile], the Kd at FGFR2 (setting [2]), at FGFR1 (setting [2]), on FGFR4 (setting [2]) and on FGFR3 (setting [2]) was 1 to 50 nM throughout. Also, the pIC50 in assay [1] was 7.30 to 10.00.

Take `COc1cc2[nH]nc(-c3cnc(N4CCC(C)(N)CC4)c(C#N)c3)c2cc1O[C@H](C)c1c(Cl)cncc1Cl` [Example 368, (R)-2-(4-amino-4-methylpiperidin-1-yl)-5-(5-(1-(3,5-dichloropyridin-4-yl)ethoxy)-6-methoxy-1H-indazol-3-yl)nicotinonitrile]: the Kd on FGFR2, at FGFR1, at FGFR4 and on FGFR3 was 1 to 50 nM in each case. Also, the pIC50 in assay [1] was 7.30 to 10.00.
